Reference: US8119614B2, “Substitution derivatives of N6-benzyladenosine, methods of their preparation, their use for preparation of drugs, cosmetic preparations and growth regulators, pharmaceutical preparations, cosmetic preparations and growth regulators containing these compounds” (Ustav Experimentalni Botaniky Akademie Ved Ceske Republiky, priority 2002, dated 2012)
pIC50: −log10 of the molar value.

Experiments:
HOS = assay: In vitro cytotoxic activity, Calcein AM assay, HOS; assay type: cell-based; details: 72 hours
[1] = test system: human erythroleukaemia K562; assay: In vitro cytotoxic activity, Calcein AM assay, K-562; assay type: cell-based; details: 72 hours, read-out: IC 50 K-562
Procedure, shortened: (§1)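 10^4 cells/well, 24 h stabilisation; cpd 6 × 4-fold dilutions, top 166.7 μM, duplicates, 72 h, 37 °C, 5% CO2; Calcein AM 1 h, fluorescence vs untreated controls; GI50 from curve.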

[2] = test system: breast carcinoma cell lines MCF-7; assay: In vitro cytotoxic activity, Calcein AM assay, MCF7; assay type: cell-based, human; details: 72 hours, read-out: IC 50 MCF7
Procedure, shortened: as §1

mouse fibroblasts NIH3T3 = assay: In vitro cytotoxic activity, Calcein AM assay, NIH-3T3; assay type: cell-based; details: 72 hours, read-out: IC 50 NIH-3T3
Procedure, shortened: as §1

[3] = test system: Human T-lymphoblastic leukemia cell line CEM; assay: In vitro cytotoxic activity, Calcein AM assay, CEM; assay type: cell-based; details: 72 hours
Procedure, shortened: as §1

promyelocytic HL-60 = assay: In vitro cytotoxic activity, Calcein AM assay, HL60; assay type: cell-based, human; details: 72 hours, read-out: IC 50 HL60
Procedure, shortened: as §1

[4] = test system: Triticum aestivum cv. Hereward; assay: Senescence inhibition on winter wheat leaf segments (chlorophyll retention); assay type: in vivo; details: for Concentration with highest activity: chlorophyll retention in excised wheat leaf tips, 96 h dark; for Activity (%) [10^−4 mol · l^−1 BAP = 100%]: chlorophyll retention, at concentration with highest activity
Procedure, shortened: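 Tip segments of the first leaf from 7-day wheat seedlings held, basal ends down, in cytokinin solutions (10^−8M to 10^−4M) for 96 h at 25° C in darkness. Chlorophyll extracted in 80% ethanol at 80° C, read at 665 nm; activity at best concentration given relative to 10^−4 M BAP (100%), means of five replicates.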

[5] = test system: Amaranthus caudatus cotyledon/hypocotyl explants; assay: Amaranthus bioassay (betacyanin content); assay type: in vivo; details: for Concentration with highest activity: 48 h dark; for Activity (%) [10^−5 mol · l^−1 BAP = 100%]: at concentration with highest activity
Procedure, shortened: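 Surface-sterilised Amaranthus caudatus var. atropurpurea seeds were germinated 72 h at 25° C. in darkness, then de-rooted. Cotyledon/hypocotyl explants (20 per dish) were incubated under green safe light on filter paper with 1 ml medium of 10 μmol NA2HPO4-KH2PO4, pH 6.8, 5 μmol tyrosine and cytokinin (10^-8M to 10^-4M) for 48 h at 25° C. in darkness. Betacyanin was extracted in […] acetic acid and measured by absorbance at 537 nm and 620 nm.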

COc1ccccc1CNc1ncnc2c1ncn2[C@@H]1O[C@H](CO)[C@@H](O)[C@H]1O [2-methoxybenzylamino, 6-(2-methoxybenzylamino)purine riboside]
pIC50 (HOS): 4.67 | pIC50 [1]: 4.95 | pIC50 [2]: < 3.78 | pIC50 (mouse fibroblasts NIH3T3): < 3.78 | pIC50 [3]: 5.49 | pIC50 (promyelocytic HL-60): 5.64 | Concentration with highest activity [4]: 10^−4 mol · l^−1 | Activity (%) [10^−4 mol · l^−1 BAP = 100%] [4]: 198 ± 12% | Concentration with highest activity [5]: 10^−5 mol · l^−1 | Activity (%) [10^−5 mol · l^−1 BAP = 100%] [5]: 86 ± 4%

OC[C@H]1O[C@@H](n2cnc3c(NCc4cccc(F)c4)ncnc32)[C@H](O)[C@@H]1O [3-fluorobenzylamino, 6-(3-fluorobenzylamino)purine riboside]
pIC50 (HOS): < 3.78 | pIC50 [1]: 5.15 | pIC50 [2]: 4.78 | pIC50 (mouse fibroblasts NIH3T3): < 3.78 | pIC50 [3]: 5.40 | pIC50 (promyelocytic HL-60): 6.04 | Concentration with highest activity [4]: 10^−4 mol · l^−1 | Activity (%) [10^−4 mol · l^−1 BAP = 100%] [4]: 220 ± 16% | Concentration with highest activity [5]: 10^−4 mol · l^−1 | Activity (%) [10^−5 mol · l^−1 BAP = 100%] [5]: 92 ± 6%

OC[C@H]1O[C@@H](n2cnc3c(NCc4cccc(Cl)c4)ncnc32)[C@H](O)[C@@H]1O [3-chlorobenzylamino, 6-(3-chlorobenzylamino)purine riboside]
pIC50 (HOS): < 3.78 | pIC50 [1]: 4.52 | pIC50 [2]: < 3.78 | pIC50 (mouse fibroblasts NIH3T3): < 3.78 | pIC50 [3]: 5.80 | pIC50 (promyelocytic HL-60): 6.12 | Concentration with highest activity [4]: 10^−4 mol · l^−1 | Activity (%) [10^−4 mol · l^−1 BAP = 100%] [4]: 72 ± 8% | Concentration with highest activity [5]: 10^−5 mol · l^−1 | Activity (%) [10^−5 mol · l^−1 BAP = 100%] [5]: 139 ± 12%

OC[C@H]1O[C@@H](n2cnc3c(NCc4ccc(F)cc4)ncnc32)[C@H](O)[C@@H]1O [4-fluorobenzylamino, 6-(4-fluorobenzylamino)purine riboside]
pIC50 (HOS): 4.70 | pIC50 [1]: 5.19 | pIC50 [2]: 4.85 | pIC50 (mouse fibroblasts NIH3T3): < 3.78 | pIC50 [3]: 5.82 | pIC50 (promyelocytic HL-60): 6.07 | Concentration with highest activity [4]: 10^−4 mol · l^−1 | Activity (%) [10^−4 mol · l^−1 BAP = 100%] [4]: 148 ± 2% | Concentration with highest activity [5]: 10^−5 mol · l^−1 | Activity (%) [10^−5 mol · l^−1 BAP = 100%] [5]: 71 ± 4%

OC[C@H]1O[C@@H](n2cnc3c(NCc4ccc(Cl)c(Cl)c4)ncnc32)[C@H](O)[C@@H]1O [3,4-dichlorobenzylamino, 6-(3,4-dichlorobenzylamino)purine riboside]
pIC50 (HOS): < 3.78 | pIC50 [1]: 5.19 | pIC50 [2]: 4.05 | pIC50 (mouse fibroblasts NIH3T3): < 3.78 | pIC50 [3]: 5.52 | pIC50 (promyelocytic HL-60): 5.96 | Concentration with highest activity [4]: 10^−4 mol · l^−1 | Activity (%) [10^−4 mol · l^−1 BAP = 100%] [4]: 151 ± 29% | Concentration with highest activity [5]: 10^−4 mol · l^−1 | Activity (%) [10^−5 mol · l^−1 BAP = 100%] [5]: 68 ± 10%

Cc1cccc(CNc2ncnc3c2ncn3[C@@H]2O[C@H](CO)[C@@H](O)[C@H]2O)c1 [3-methylbenzylamino, 6-(3-methylbenzylamino)purine riboside]
pIC50 (HOS): < 3.78 | pIC50 [1]: < 3.78 | pIC50 [2]: < 3.78 | pIC50 (mouse fibroblasts NIH3T3): < 3.78 | pIC50 [3]: 4.72 | pIC50 (promyelocytic HL-60): 5.19 | Concentration with highest activity [4]: 10^−4 mol · l^−1 | Activity (%) [10^−4 mol · l^−1 BAP = 100%] [4]: 143 ± 9% | Concentration with highest activity [5]: 10^−5 mol · l^−1 | Activity (%) [10^−5 mol · l^−1 BAP = 100%] [5]: 103 ± 16%

OC[C@H]1O[C@@H](n2cnc3c(NCc4ccccc4Cl)ncnc32)[C@H](O)[C@@H]1O [2-chlorobenzylamino, 6-(2-chlorobenzylamino)purine riboside]
pIC50 (HOS): < 3.78 | pIC50 [1]: 4.19 | pIC50 [2]: < 3.78 | pIC50 (mouse fibroblasts NIH3T3): < 3.78 | pIC50 [3]: 4.84 | pIC50 (promyelocytic HL-60): 5.80 | Concentration with highest activity [4]: 10^−4 mol · l^−1 | Activity (%) [10^−4 mol · l^−1 BAP = 100%] [4]: 119 ± 9% | Concentration with highest activity [5]: 10^−5 mol · l^−1 | Activity (%) [10^−5 mol · l^−1 BAP = 100%] [5]: 113 ± 7%

OC[C@H]1O[C@@H](n2cnc3c(NCc4ccccc4F)ncnc32)[C@H](O)[C@@H]1O [2-fluorobenzylamino, 6-(2-fluorobenzylamino)purine riboside]
pIC50 (HOS): < 3.78 | pIC50 [1]: 4.48 | pIC50 [2]: < 3.78 | pIC50 [3]: 5.34 | pIC50 (promyelocytic HL-60): 5.49 | Concentration with highest activity [4]: 10^−4 mol · l^−1 | Activity (%) [10^−4 mol · l^−1 BAP = 100%] [4]: 118 ± 19% | Concentration with highest activity [5]: 10^−4 mol · l^−1 | Activity (%) [10^−5 mol · l^−1 BAP = 100%] [5]: 96 ± 2%

OC[C@H]1O[C@@H](n2cnc3c(NCc4cccc(Br)c4)ncnc32)[C@H](O)[C@@H]1O [3-bromobenzylamino, 6-(3-bromobenzylamino)purine riboside]
pIC50 (HOS): < 3.78 | pIC50 [1]: 4.71 | pIC50 [2]: < 3.78 | pIC50 (mouse fibroblasts NIH3T3): < 3.78 | pIC50 [3]: 5.30 | pIC50 (promyelocytic HL-60): 5.10 | Concentration with highest activity [4]: 10^−4 mol · l^−1 | Activity (%) [10^−4 mol · l^−1 BAP = 100%] [4]: 89 ± 10% | Concentration with highest activity [5]: 10^−4 mol · l^−1 | Activity (%) [10^−5 mol · l^−1 BAP = 100%] [5]: 151 ± 16%

Cc1ccccc1CNc1ncnc2c1ncn2[C@@H]1O[C@H](CO)[C@@H](O)[C@H]1O [2-methylbenzylamino, 6-(2-methylbenzylamino)purine riboside]
pIC50 (HOS): < 3.78 | pIC50 [1]: < 3.78 | pIC50 [2]: < 3.78 | pIC50 (mouse fibroblasts NIH3T3): < 3.78 | pIC50 [3]: 4.85 | pIC50 (promyelocytic HL-60): 5.48 | Concentration with highest activity [4]: 10^−4 mol · l^−1 | Activity (%) [10^−4 mol · l^−1 BAP = 100%] [4]: 142 ± 6% | Concentration with highest activity [5]: 10^−5 mol · l^−1 | Activity (%) [10^−5 mol · l^−1 BAP = 100%] [5]: 105 ± 14%

OC[C@H]1O[C@@H](n2cnc3c(NCc4ccc(Cl)cc4)ncnc32)[C@H](O)[C@@H]1O [4-chlorobenzylamino, 6-(4-chlorobenzylamino)purine riboside]
pIC50 (HOS): < 3.78 | pIC50 [1]: 4.79 | pIC50 [2]: < 3.78 | pIC50 (mouse fibroblasts NIH3T3): < 3.78 | pIC50 [3]: 5.19 | pIC50 (promyelocytic HL-60): 5.28 | Concentration with highest activity [4]: 10^−4 mol · l^−1 | Activity (%) [10^−4 mol · l^−1 BAP = 100%] [4]: 104 ± 6% | Concentration with highest activity [5]: 10^−5 mol · l^−1 | Activity (%) [10^−5 mol · l^−1 BAP = 100%] [5]: 35 ± 9%

COc1cccc(CNc2ncnc3c2ncn3[C@@H]2O[C@H](CO)[C@@H](O)[C@H]2O)c1O [2-hydroxy-3-methoxybenzylamino, 6-(2-hydroxy-3-methoxybenzylamino)purine riboside]
pIC50 (HOS): < 3.78 | pIC50 [1]: 4.72 | pIC50 [2]: 4.57 | pIC50 (mouse fibroblasts NIH3T3): < 3.78 | pIC50 [3]: 6.52 | pIC50 (promyelocytic HL-60): 6.82 | Concentration with highest activity [4]: 10^−4 mol · l^−1 | Activity (%) [10^−4 mol · l^−1 BAP = 100%] [4]: 30 ± 8% | Concentration with highest activity [5]: 10^−4 mol · l^−1 | Activity (%) [10^−5 mol · l^−1 BAP = 100%] [5]: 18 ± 5%

COc1cccc(CNc2ncnc3c2ncn3[C@@H]2O[C@H](CO)[C@@H](O)[C@H]2O)c1 [3-methoxybenzylamino, 6-(3-methoxybenzylamino)purine riboside]
pIC50 (HOS): < 3.78 | pIC50 [1]: < 3.78 | pIC50 [2]: < 3.78 | pIC50 (mouse fibroblasts NIH3T3): < 3.78 | pIC50 [3]: 5.12 | pIC50 (promyelocytic HL-60): 5.31 | Concentration with highest activity [4]: 10^−4 mol · l^−1 | Activity (%) [10^−4 mol · l^−1 BAP = 100%] [4]: 209 ± 8% | Concentration with highest activity [5]: 10^−4 mol · l^−1 | Activity (%) [10^−5 mol · l^−1 BAP = 100%] [5]: 98 ± 10%
